From patent US12697376B2, “Cationic lipid compounds” (Guangzhou Anobri Pharmaceutical Co. Ltd., priority 2021, dated 2026)

Columns and labels:
[1] = test system: luciferase expression in the liver; assay: In vivo luciferase mRNA expression in liver after tail vein injection of FLuc mRNA lipid nanoparticles; design: species or system mice; conditions: liver 5 hours after administration, LNP 50% cationic lipid/10% DSPC/38% cholesterol/2% PEG-DMG; for Liver Luc @ 0.3 mg/kg dose: 0.3 mg mRNA/kg; for Liver Luc @ 1.0 mg/kg dose: 1.0 mg mRNA/kg
Procedure: (§1) Cationic lipids, DSPC, cholesterol, and PEG-lipids were dissolved in ethanol in molar ratios of 50:10:38:2 or 48:10:40:2. Lipid nanoparticles (LNPs) were prepared in a ratio of total lipid to mRNA by weight of about 10:1 to 30:1. Briefly, mRNA was diluted to 0.15 mg/ml in 10 to 50 ml of citrate buffer (pH=4). Using a syringe pump, an ethanolic solution of lipids was mixed with an aqueous mRNA solution in a ratio of approximately 1:5 to 1:3 by volume at a total flow rate of over 10 ml/min. Ethanol was then removed and the external buffer was replaced by dialysis-class PBS. Finally, the lipid nanoparticles were filtered through a sterile filter with a pore size of 0.2 um. The particle size of the lipid nanoparticles was approximately 65-105 nm in diameter and, in some cases, approximately 75-100 nm in diameter, determined by quasi-elastic light scattering using Malvern Zetasizer Nano ZS.
According to the guidelines set by the State Scientific and Technological Commission of The People's Republic of China, female C57BL/6 mice aged 6-8 weeks and CD-1 mice aged 8-10 weeks were used to perform the study. Various doses of mRNA lipid nanoparticles were administered by intravenous injection and the animals were euthanized at specific time points (e.g., 5 hours) post-administration. The liver and spleen were collected, weighed, immediately frozen in liquid nitrogen, and stored at −80° C. until being used for analysis.
For the liver, approximately 50 mg of liver tissue was cut and placed in 2 mL FastPrep tubes (MP Biomedicals, Solon OH) for analysis. ¼″ ceramic beads (MP Biomedicals) and 500 μL of room temperature Glo Lysis Buffer-GLB (Promega, Madison WI) were then added to each tube. The liver tissue was then homogenized for 15 seconds at a speed of 2×6.0 m/s using a FastPrep24 instrument (MP Biomedicals). The homogenates were incubated at room temperature for 5 minutes, then diluted with GLB in a ratio of 1:4, and finally evaluated using the SteadyGlo luciferase assay system (Promega). Specifically, 50 μL of diluted tissue homogenate was mixed with 50 μL of SteadyGlo substrate. The mixture was shaken for 10 seconds, then incubated at room temperature for 5 minutes, and subsequently quantified using a SpectraMAX_L chemiluminescent plate reader (Meigu Molecular Instrument (Shanghai) Co., Ltd.). The amount of protein was measured by using the BCA Protein Quantitation Kit (Shanghai Colorless Medical Technology Co., Ltd.). Relative luminescence units (RLU) were normalized to the total ug of the measured protein. To convert RLU into μg luciferase, a standard curve was generated using QuantiLum recombinant luciferase (Promega).
FLuc mRNA (L-6107) from Trilink Biotechnologies, which was originally isolated from fireflies (Photinus pyralis), will express luciferase protein. Fluc is commonly used in mammalian cell cultures to measure gene expression and cell viability. It emits biological light in the presence of the substrate luciferin. This capped and polyadenylated mRNA was completely replaced by 5-methylcytidine and pseudouridine.
For comparison purposes, these lipids were also used to formulate lipid nanoparticles containing FLuc mRNA (L-6107) using an ordered mixing method, as described in Example 10. Lipid nanoparticles were formulated with the following molar ratio: 50% cationic lipid/10% distearylphosphatidylcholine (DSPC)/38% cholesterol/2% PEG lipid (“PEG-DMG”, i.e., (1-(monomethoxy-polyethylene glycol)-2,3-dimyristoylglycerol, average PEG molecular weight 2000). As described in Example 10, relative activity was determined by measuring luciferase expression in the liver 5 hours after administration via tail vein injection. The activity was compared at doses of 0.3 and 1.0 mg mRNA/kg and expressed as ng luciferase/g liver measured 5 hours after administration as described in Example 10.

[2] = Determination of the pKa of the cationic lipid in lipid nanoparticles by TNS fluorescence; format: physicochemical; conditions: probe 2-(p-toluidine)-6-naphthalenesulfonic acid (TNS), 1 uM final, cationic lipid in LNP (cationic lipid/DSPC/cholesterol/PEG lipid 50/10/38/2 mol %), pH of half-maximal fluorescence
Procedure: as §1
The pKa of the formulated cationic lipid correlates with the effectiveness of the LNP for nucleic acid delivery. The preferred pKa range is from 5 to 7. The pKa of each cationic lipid was determined in lipid nanoparticles using an analysis based on the fluorescence of 2-(p-toluidine)-6-naphthalenesulfonic acid (TNS). Lipid nanoparticles containing cationic lipids/DSPC/cholesterol/PEG lipids (50/10/38/2 mol %) at a concentration of 0.4 mM total lipid in PBS were prepared using an ordered method as described in Example 10. TNS was prepared as a 100 μM stock solution in distilled water. The vesicles were diluted to contain 24 uM lipid in a 2 mL buffer solution containing 10 mM HEPES, 10 mM MES, 10 mM acetic acid, and 130 mM NaCl, pH 2.5-11. Aliquots of 100 μM TNS stock solution were added to bring the final concentration to 1 uM. After vortex mixing, fluorescence intensity was measured in an SLM Aminco Series 2 luminescence spectrophotometer at room temperature using excitation and emission wavelengths of 321 nm and 445 nm. Fluorescence data were analyzed using a s-shaped curve fitting and pKa was determined by measuring the pH that produced half-maximal fluorescence intensity.

SMILES	pKa [2]	Liver Luc @ 0.3 mg/kg dose [1]	Liver Luc @ 1.0 mg/kg dose [1]
CCCCCCCCC(CC)(CCCCCC)C(=O)OCCCCCCN(CCCCO)CCCCCCOC(=O)C(CCC)(CCCCCC)CCCCCCCC (stereo not drawn) [Compound 8]	5.98	985 ± 625 ng luciferase/g liver	7188 ± 942 ng luciferase/g liver
CCCCCCCCC(CCCCCC)C(=O)OCCCCCCN(CCCCO)CCCCCCOC(=O)C(CC)(CCCCCC)CCCCCCCC (stereo not drawn) [Compound 2]	5.91	1469 ± 294 ng luciferase/g liver	10671 ± 1912 ng luciferase/g liver
CCCCCCCCC(CC)(CCCCCC)C(=O)OCCCCCCN(CCCCO)CCCCCCOC(=O)C(CC)(CCCCCC)CCCCCCCC (stereo not drawn) [Compound 7]	6.08	1218 ± 359 ng luciferase/g liver	8914 ± 1487 ng luciferase/g liver
CCCCCCCCC(CCC)(CCCCCC)C(=O)OCCCCCCN(CCCCO)CCCCCCOC(=O)C(CCC)(CCCCCC)CCCCCCCC (stereo not drawn) [Compound 9]	6.05	1138 ± 265 ng luciferase/g liver	8443 ± 1045 ng luciferase/g liver
CCCCCCCCC(C)(CCCCCC)C(=O)OCCCCCCN(CCCCO)CCCCCCOC(=O)C(C)(CCCCCC)CCCCCCCC (stereo not drawn) [Compound 4]	6.12	1179 ± 362 ng luciferase/g liver	8630 ± 824 ng luciferase/g liver
CCCCCCCCC(CCCCCC)C(=O)OCCCCCCN(CCCCO)CCCCCCOC(=O)C(C)(CCCCCC)CCCCCCCC (stereo not drawn) [Compound 1]	6.25	1424 ± 265 ng luciferase/g liver	10318 ± 1304 ng luciferase/g liver

Further lines, with some results ahead:

pKa [2]	SMILES	Liver Luc @ 0.3 mg/kg dose [1]	Liver Luc @ 1.0 mg/kg dose [1]
6.13	CCCCCCCCC(C)(CCCCCC)C(=O)OCCCCCCN(CCCCO)CCCCCCOC(=O)C(CCC)(CCCCCC)CCCCCCCC (stereo not drawn) [Compound 6]	1628 ± 432 ng luciferase/g liver	11753 ± 2598 ng luciferase/g liver
6.22	CCCCCCCCC(CCCCCC)C(=O)OCCCCCCN(CCCCO)CCCCCCOC(=O)C(CCC)(CCCCCC)CCCCCCCC (stereo not drawn) [Compound 3]	961 ± 469 ng luciferase/g liver	6917 ± 642 ng luciferase/g liver
5.89	CCCCCCCCC(C)(CCCCCC)C(=O)OCCCCCCN(CCCCO)CCCCCCOC(=O)C(CC)(CCCCCC)CCCCCCCC (stereo not drawn) [Compound 5]	1424 ± 289 ng luciferase/g liver	10372 ± 2096 ng luciferase/g liver
